The NIST ThermoML archive (doi:10.1021/je050006+)
± gives the expanded uncertainty stated by the source.

What was measured:
[1] = xn = mol fraction of the nth substance listed; details: 101.3 kPa, Liquid
[2] = excess molar enthalpy (molar enthalpy of mixing); xn = mol fraction of the nth substance listed; details: 101.3 kPa, Liquid

`C=C1CCC2CC1C2(C)C` (stereo not drawn) [β-pinene] + CCO gave a mass density ([1]; 283.15 K, x1 = 0.0507) of 807.27 ± 1.7 kg/m3, a speed of sound ([1]; 283.15 K, x1 = 0.0507) of 1209.5 ± 3.6 m/s and a mass density ([1]; 283.15 K, x1 = 0.1012) of 815.62 ± 1.5 kg/m3. The speed of sound ([1]; 283.15 K, x1 = 0.1012) was 1222.5 ± 3.5 m/s, the mass density ([1]; 283.15 K, x1 = 0.2046) was 829.52 ± 1.3 kg/m3 and the speed of sound ([1]; 283.15 K, x1 = 0.2046) was 1246.3 ± 3.3 m/s. The mass density ([1]; 283.15 K, x1 = 0.3015) was 839.85 ± 1 kg/m3, the speed of sound ([1]; 283.15 K, x1 = 0.3015) was 1265.4 ± 3.2 m/s and the mass density ([1]; 283.15 K, x1 = 0.4042) was 848.66 ± 0.88 kg/m3. It also gave a speed of sound ([1]; 283.15 K, x1 = 0.4042) of 1282.4 ± 3.1 m/s, a mass density ([1]; 283.15 K, x1 = 0.5145) of 856.44 ± 0.78 kg/m3 and a speed of sound ([1]; 283.15 K, x1 = 0.5145) of 1298.8 ± 3 m/s. It also gave a mass density ([1]; 283.15 K, x1 = 0.6019) of 861.6 ± 0.7 kg/m3, a speed of sound ([1]; 283.15 K, x1 = 0.6019) of 1309.4 ± 3 m/s and a mass density ([1]; 283.15 K, x1 = 0.6981) of 866.52 ± 0.66 kg/m3. For the same molecule, the speed of sound ([1]; 283.15 K, x1 = 0.6981) was 1320.5 ± 3 m/s, the mass density ([1]; 283.15 K, x1 = 0.7932) was 870.77 ± 0.65 kg/m3 and the speed of sound ([1]; 283.15 K, x1 = 0.7932) was 1330.4 ± 3 m/s. For the same molecule, the mass density ([1]; 283.15 K, x1 = 0.8762) was 874.13 ± 0.64 kg/m3, the speed of sound ([1]; 283.15 K, x1 = 0.8762) was 1339.3 ± 3 m/s and the mass density ([1]; 283.15 K, x1 = 0.9355) was 876.41 ± 0.65 kg/m3. For the same molecule, the speed of sound ([1]; 283.15 K, x1 = 0.9355) was 1345.8 ± 3.2 m/s, the mass density ([1]; 283.15 K, x1 = 0.9799) was 878.19 ± 0.67 kg/m3 and the speed of sound ([1]; 283.15 K, x1 = 0.9799) was 1353.4 ± 3.4 m/s. It also gave a mass density ([1]; 298.15 K, x1 = 0.0502) of 794.53 ± 1.7 kg/m3, a speed of sound ([1]; 298.15 K, x1 = 0.0502) of 1156.2 ± 3.4 m/s and a mass density ([1]; 298.15 K, x1 = 0.1022) of 803.02 ± 1.5 kg/m3. It also gave a speed of sound ([1]; 298.15 K, x1 = 0.1022) of 1168.9 ± 3.3 m/s, a mass density ([1]; 298.15 K, x1 = 0.1999) of 816.23 ± 1.3 kg/m3 and a speed of sound ([1]; 298.15 K, x1 = 0.1999) of 1189.9 ± 3.2 m/s. It also gave a mass density ([1]; 298.15 K, x1 = 0.3045) of 827.43 ± 1.1 kg/m3, a speed of sound ([1]; 298.15 K, x1 = 0.3045) of 1209 ± 3 m/s and a mass density ([1]; 298.15 K, x1 = 0.4019) of 835.85 ± 0.9 kg/m3. It also gave a speed of sound ([1]; 298.15 K, x1 = 0.4019) of 1224.1 ± 2.9 m/s, a mass density ([1]; 298.15 K, x1 = 0.5) of 842.91 ± 0.79 kg/m3 and a speed of sound ([1]; 298.15 K, x1 = 0.5) of 1237.4 ± 2.9 m/s. It also gave a mass density ([1]; 298.15 K, x1 = 0.6017) of 849.06 ± 0.72 kg/m3, a speed of sound ([1]; 298.15 K, x1 = 0.6017) of 1249.8 ± 2.9 m/s and a mass density ([1]; 298.15 K, x1 = 0.6999) of 854.18 ± 0.69 kg/m3. It also gave a speed of sound ([1]; 298.15 K, x1 = 0.6999) of 1260.6 ± 2.8 m/s, a mass density ([1]; 298.15 K, x1 = 0.7626) of 857.17 ± 0.65 kg/m3 and a speed of sound ([1]; 298.15 K, x1 = 0.7626) of 1264.9 ± 2.9 m/s. For the same molecule, the mass density ([1]; 298.15 K, x1 = 0.89) was 862.45 ± 0.66 kg/m3, the speed of sound ([1]; 298.15 K, x1 = 0.89) was 1280.4 ± 3 m/s and the mass density ([1]; 298.15 K, x1 = 0.9415) was 864.49 ± 0.67 kg/m3. The speed of sound ([1]; 298.15 K, x1 = 0.9415) was 1286.3 ± 3.2 m/s, the mass density ([1]; 298.15 K, x1 = 0.98) was 866.07 ± 0.71 kg/m3 and the speed of sound ([1]; 298.15 K, x1 = 0.98) was 1294.5 ± 3.2 m/s. For the same molecule, the mass density ([1]; 313.15 K, x1 = 0.052) was 782.17 ± 1.7 kg/m3, the speed of sound ([1]; 313.15 K, x1 = 0.052) was 1104.8 ± 3.3 m/s and the mass density ([1]; 313.15 K, x1 = 0.1041) was 790.76 ± 1.5 kg/m3. For the same molecule, the speed of sound ([1]; 313.15 K, x1 = 0.1041) was 1116.6 ± 3.1 m/s, the mass density ([1]; 313.15 K, x1 = 0.2043) was 804.04 ± 1.3 kg/m3 and the speed of sound ([1]; 313.15 K, x1 = 0.2043) was 1135.7 ± 3 m/s. For the same molecule, the mass density ([1]; 313.15 K, x1 = 0.3029) was 814.57 ± 1.1 kg/m3, the speed of sound ([1]; 313.15 K, x1 = 0.3029) was 1151.7 ± 2.9 m/s and the mass density ([1]; 313.15 K, x1 = 0.4046) was 823.44 ± 0.92 kg/m3. The speed of sound ([1]; 313.15 K, x1 = 0.4046) was 1167 ± 2.8 m/s, the mass density ([1]; 313.15 K, x1 = 0.4981) was 830.17 ± 0.8 kg/m3 and the speed of sound ([1]; 313.15 K, x1 = 0.4981) was 1178.5 ± 2.8 m/s. It also gave a mass density ([1]; 313.15 K, x1 = 0.6014) of 836.54 ± 0.74 kg/m3, a speed of sound ([1]; 313.15 K, x1 = 0.6014) of 1189.8 ± 2.7 m/s and a mass density ([1]; 313.15 K, x1 = 0.6979) of 841.7 ± 0.69 kg/m3. The speed of sound ([1]; 313.15 K, x1 = 0.6979) was 1198.7 ± 2.7 m/s, the mass density ([1]; 313.15 K, x1 = 0.809) was 846.76 ± 0.68 kg/m3 and the speed of sound ([1]; 313.15 K, x1 = 0.809) was 1207 ± 2.7 m/s. For the same molecule, the mass density ([1]; 313.15 K, x1 = 0.8844) was 850.12 ± 0.68 kg/m3, the speed of sound ([1]; 313.15 K, x1 = 0.8844) was 1213.6 ± 2.9 m/s and the mass density ([1]; 313.15 K, x1 = 0.9356) was 852.26 ± 0.7 kg/m3. It also gave a speed of sound ([1]; 313.15 K, x1 = 0.9356) of 1221.9 ± 3.1 m/s, a mass density ([1]; 313.15 K, x1 = 0.985) of 854.6 ± 0.73 kg/m3 and a speed of sound ([1]; 313.15 K, x1 = 0.985) of 1228.9 ± 3.1 m/s. The excess molar enthalpy ([2]; 283.15 K, x1 = 0.071) was 0.109 ± 0.004 kJ/mol, the excess molar enthalpy ([2]; 283.15 K, x1 = 0.142) was 0.206 ± 0.006 kJ/mol and the excess molar enthalpy ([2]; 283.15 K, x1 = 0.269) was 0.334 ± 0.009 kJ/mol. For the same molecule, the excess molar enthalpy ([2]; 283.15 K, x1 = 0.394) was 0.417 ± 0.01 kJ/mol, the excess molar enthalpy ([2]; 283.15 K, x1 = 0.496) was 0.457 ± 0.011 kJ/mol and the excess molar enthalpy ([2]; 283.15 K, x1 = 0.599) was 0.489 ± 0.012 kJ/mol. It also gave an excess molar enthalpy ([2]; 283.15 K, x1 = 0.689) of 0.49 ± 0.012 kJ/mol, an excess molar enthalpy ([2]; 283.15 K, x1 = 0.773) of 0.482 ± 0.012 kJ/mol and an excess molar enthalpy ([2]; 283.15 K, x1 = 0.864) of 0.44 ± 0.011 kJ/mol. The excess molar enthalpy ([2]; 283.15 K, x1 = 0.93) was 0.353 ± 0.009 kJ/mol, the excess molar enthalpy ([2]; 283.15 K, x1 = 0.964) was 0.278 ± 0.008 kJ/mol and the excess molar enthalpy ([2]; 298.15 K, x1 = 0.071) was 0.146 ± 0.005 kJ/mol. For the same molecule, the excess molar enthalpy ([2]; 298.15 K, x1 = 0.142) was 0.27 ± 0.007 kJ/mol, the excess molar enthalpy ([2]; 298.15 K, x1 = 0.269) was 0.437 ± 0.011 kJ/mol and the excess molar enthalpy ([2]; 298.15 K, x1 = 0.394) was 0.539 ± 0.013 kJ/mol. It also gave an excess molar enthalpy ([2]; 298.15 K, x1 = 0.496) of 0.587 ± 0.014 kJ/mol, an excess molar enthalpy ([2]; 298.15 K, x1 = 0.599) of 0.607 ± 0.014 kJ/mol and an excess molar enthalpy ([2]; 298.15 K, x1 = 0.689) of 0.605 ± 0.014 kJ/mol. For the same molecule, the excess molar enthalpy ([2]; 298.15 K, x1 = 0.773) was 0.582 ± 0.014 kJ/mol, the excess molar enthalpy ([2]; 298.15 K, x1 = 0.864) was 0.51 ± 0.012 kJ/mol and the excess molar enthalpy ([2]; 298.15 K, x1 = 0.93) was 0.39 ± 0.01 kJ/mol. It also gave an excess molar enthalpy ([2]; 298.15 K, x1 = 0.964) of 0.325 ± 0.009 kJ/mol, an excess molar enthalpy ([2]; 313.15 K, x1 = 0.071) of 0.181 ± 0.006 kJ/mol and an excess molar enthalpy ([2]; 313.15 K, x1 = 0.142) of 0.34 ± 0.009 kJ/mol. For the same molecule, the excess molar enthalpy ([2]; 313.15 K, x1 = 0.269) was 0.564 ± 0.013 kJ/mol, the excess molar enthalpy ([2]; 313.15 K, x1 = 0.394) was 0.715 ± 0.016 kJ/mol and the excess molar enthalpy ([2]; 313.15 K, x1 = 0.496) was 0.793 ± 0.018 kJ/mol. For the same molecule, the excess molar enthalpy ([2]; 313.15 K, x1 = 0.599) was 0.835 ± 0.019 kJ/mol, the excess molar enthalpy ([2]; 313.15 K, x1 = 0.689) was 0.831 ± 0.019 kJ/mol and the excess molar enthalpy ([2]; 313.15 K, x1 = 0.773) was 0.8 ± 0.018 kJ/mol. For the same molecule, the excess molar enthalpy ([2]; 313.15 K, x1 = 0.864) was 0.7 ± 0.016 kJ/mol, the excess molar enthalpy ([2]; 313.15 K, x1 = 0.93) was 0.575 ± 0.014 kJ/mol and the excess molar enthalpy ([2]; 313.15 K, x1 = 0.964) was 0.395 ± 0.01 kJ/mol.
